Experiments:
[1] = biological target: T1, GlyT-1C (Homo sapiens, UniProt P48067); assay: Glycine uptake by cells transiently transfected with GlyT-1C; type: cell-based; settings: GlyT-1 and GlyT-2 transfected cells
T1 construct: [3H]glycine uptake
T1 sequence (P48067 1-706): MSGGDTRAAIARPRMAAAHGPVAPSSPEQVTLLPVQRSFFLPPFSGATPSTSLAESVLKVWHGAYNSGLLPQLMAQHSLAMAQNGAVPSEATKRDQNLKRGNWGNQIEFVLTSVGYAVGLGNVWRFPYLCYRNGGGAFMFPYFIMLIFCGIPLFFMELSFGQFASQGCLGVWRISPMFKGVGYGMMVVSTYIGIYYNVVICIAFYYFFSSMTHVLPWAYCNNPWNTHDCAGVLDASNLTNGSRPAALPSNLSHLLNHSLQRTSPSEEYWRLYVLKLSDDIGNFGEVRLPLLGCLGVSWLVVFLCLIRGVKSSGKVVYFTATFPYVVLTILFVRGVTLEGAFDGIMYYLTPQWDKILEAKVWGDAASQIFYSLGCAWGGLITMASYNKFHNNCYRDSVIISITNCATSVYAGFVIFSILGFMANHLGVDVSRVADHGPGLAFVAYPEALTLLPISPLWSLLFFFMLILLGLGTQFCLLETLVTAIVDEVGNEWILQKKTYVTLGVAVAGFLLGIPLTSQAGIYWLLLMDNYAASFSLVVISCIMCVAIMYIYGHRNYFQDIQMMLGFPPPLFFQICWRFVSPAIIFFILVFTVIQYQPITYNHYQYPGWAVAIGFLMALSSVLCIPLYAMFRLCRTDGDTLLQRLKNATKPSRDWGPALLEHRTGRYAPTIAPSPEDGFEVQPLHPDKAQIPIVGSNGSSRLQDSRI
Experimental: (§1) This example illustrates a method for the measurement of glycine uptake by transfected cultured cells.
(§2) Cells transiently transfected with GlyT-1C (see Kim, et al., Molecular Pharmacology, 45, 1994:608-617) and human GlyT-2 (the homolog of the rat GlyT-2 described by Liu et al., J. Biological Chemistry, 268, 1993.22802-22808) were washed three times with HEPES buffered saline (HBS). The cells were then incubated 10 minutes at 37° C., after which a solution containing 50 nM [^3 H]glycine (17.5 Ci/mmol) and either (a) no potential competitor, (b) […] nonradioactive glycine or (c) a concentration of a candidate drug. A range of concentrations of the candidate drug was used to generate data for calculating the concentration resulting in 50% of the effect (e.g., the IC50 's which are the concentration of drug inhibiting glycine uptake by 50%). The cells were then incubated another 10 minutes at 37° C., after which the cells were aspirated and washed three times with ice-cold HBS. The cells were harvested, scintillant was added to the cells, the cells were shaken for 30 minutes, and the radioactivity in the cells was counted using a scintillation counter. Data were compared between the same cells contacted and not contacted by the candidate agent, and between cells having GlyT-1 activity versus cells having GlyT-2 activity, depending on the assay being conducted.

[2] = biological target: T2, human GlyT-2 (Homo sapiens, UniProt Q9Y345); assay: Glycine uptake by cells transiently transfected with human GlyT-2; type: cell-based; settings: GlyT-2 versus GlyT-1 transfected cells
T2 construct: [3H]glycine uptake
T2 sequence (Q9Y345 1-797): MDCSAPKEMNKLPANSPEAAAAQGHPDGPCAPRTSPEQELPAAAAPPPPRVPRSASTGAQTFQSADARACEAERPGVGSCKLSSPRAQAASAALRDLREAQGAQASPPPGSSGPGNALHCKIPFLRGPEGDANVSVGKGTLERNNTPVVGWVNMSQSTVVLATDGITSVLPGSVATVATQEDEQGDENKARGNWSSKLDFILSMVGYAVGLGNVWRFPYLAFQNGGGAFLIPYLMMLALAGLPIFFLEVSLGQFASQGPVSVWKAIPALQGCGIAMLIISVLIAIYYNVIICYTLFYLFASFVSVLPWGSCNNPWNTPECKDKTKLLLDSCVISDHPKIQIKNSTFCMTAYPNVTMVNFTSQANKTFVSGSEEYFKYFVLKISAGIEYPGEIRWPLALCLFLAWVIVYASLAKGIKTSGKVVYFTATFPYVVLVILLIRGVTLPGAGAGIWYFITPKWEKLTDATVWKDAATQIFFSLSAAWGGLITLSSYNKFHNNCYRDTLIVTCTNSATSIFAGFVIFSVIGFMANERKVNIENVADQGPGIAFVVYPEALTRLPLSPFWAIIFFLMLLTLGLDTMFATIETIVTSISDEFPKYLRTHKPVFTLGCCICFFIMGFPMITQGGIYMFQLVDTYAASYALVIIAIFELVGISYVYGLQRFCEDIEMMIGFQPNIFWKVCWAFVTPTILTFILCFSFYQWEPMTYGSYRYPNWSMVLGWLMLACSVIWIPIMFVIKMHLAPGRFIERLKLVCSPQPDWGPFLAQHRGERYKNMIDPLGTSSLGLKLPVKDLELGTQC
Experimental: as §1, §2

Row | SMILES | mixed GlyT-1/GlyT-2 activity [1] | selectivity for inhibition of glycine transport via GlyT-2 versus GlyT-1 [2]
1 | CCCc1ccc(C(SCC(N)C(=O)O)c2ccc(F)cc2F)cc1 (racemic) [S-(2,4-Difluoro-4'-^npropyldiphenyl)methyl-D,L-cysteine] | mixed GlyT-1/GlyT-2 activity | –
2 | CCc1ccc(C(SCC(N)C(=O)O)c2ccc(F)cc2F)cc1CC (racemic) [S-(3,4-Diethyl-2',4'-difluorodiphenyl)methyl-D,L-cysteine] | – | selectivity for the inhibition of glycine transport via GlyT-2 versus GlyT-1
3 | CCc1ccc(C(SC(C)(C)C(N)C(=O)O)c2ccccc2F)cc1CC (racemic) [S-(3,4-Diethyl-2'-fluorodiphenyl)methyl-D,L-dimethylcysteine] | – | selectivity for the inhibition of glycine transport via GlyT-2 versus GlyT-1
4 | CCc1ccc(C(SCC(N)C(=O)O)c2cccc(F)c2)cc1CC (racemic) [S-(3,4-Diethyl-3'-fluorodiphenyl)methyl-D,L-cysteine] | mixed GlyT-1/GlyT-2 activity | –
5 | CCc1ccc(C(SCC(N)C(=O)O)c2cccc(C(F)(F)F)c2)cc1CC (racemic) [S-(3,4-Diethyl-3'-trifluoromethyidiphenyl)methyl-D,L-cysteine] | mixed GlyT-1/GlyT-2 activity | –
6 | CCc1ccc(C(SCC(N)C(=O)O)c2ccc([N+](=O)[O-])cc2)cc1CC (racemic) [S-(3,4-Diethyl-4'-nitrodiphenyl)methyl-D,L-cysteine] | – | selectivity for the inhibition of glycine transport via GlyT-2 versus GlyT-1
7 | CCc1ccc(C(SC(C)(C)C(N)C(=O)O)c2ccc(F)cc2)cc1CC (racemic) [S-(3,4-Diethyl-4-fluorodiphenyl)methyl-D,L-dimethylcysteine] | mixed GlyT-1/GlyT-2 activity | –
8 | CC(C)(C)c1ccc(C(SCCC(N)C(=O)O)c2ccccc2)cc1 (racemic) [S-(4'-Butyidiphenyl)methyl-D,L-homocysteine] | mixed GlyT-1/GlyT-2 activity | –
9 | Cc1ccc(C(SCC(N)C(=O)O)c2ccc(C)cc2)cc1 (racemic) [S-(4,4'-Dimethyldiphenyl)methyl-D,L-cysteine] | – | selectivity for the inhibition of glycine transport via GlyT-2 versus GlyT-1
10 | NC(CSC(c1ccc(F)cc1)c1ccccc1-c1ccccc1)C(=O)O (racemic) [S-(4-Fluoro-2'-phenyldiphenyl)methyl-D,L-cysteine] | – | selectivity for the inhibition of glycine transport via GlyT-2 versus GlyT-1
11 | Cc1ccc(C(SCC(N)C(=O)O)c2ccc(C)s2)s1 (racemic) [S-[α,α-Bis(5-methyl-2-thienyl)]methyl-D,L-cysteine] | – | selectivity for the inhibition of glycine transport via GlyT-2 versus GlyT-1
12 | NC(CSC(c1ccc2c(c1)CCCC2)c1ccc(F)cc1F)C(=O)O (racemic) [S-[α-(5,6,7,8-Tetrahydronaphth-2-yl)-α-(2,4-difluorophenyl)]methyl-D,L-cysteine] | – | selectivity for the inhibition of glycine transport via GlyT-2 versus GlyT-1
